# Data as given in ChEMBL document CHEMBL3137667, “[Drug-induced liver injury; fourteenth updated edition of the bibliographic database of liver injuries and related drugs]” (Gastroenterol Clin Biol, 2004).
# Tests used:
# [1] = human
# [2] = human; remark: listed apart in the source
# [3] = human; remark: listed apart in the source
# [4] = human; remark: listed apart in the source
# [5] = human, serum
# [6] = human; remark: listed apart in the source
# [7] = human; remark: listed apart in the source
# [8] = Times to onset, minimal and maximal, observed in the indexed observations. [column 'DELAI' in source]; details: human
# [9] = human, serum, 4383 h
# [10] = human; remark: listed apart in the source
# [11] = Presence of at least one case with successful reintroduction. [column 'REINT' in source]; details: human
# [12] = Highest frequency of acute liver toxicity observed during clinical trials, expressed as a percentage. [column '% AIGUE' in source]; details: human
# [13] = human; remark: listed apart in the source
# [14] = human; remark: listed apart in the source
# [15] = human, serum; remark: listed apart in the source
# [16] = Highest frequency of moderate liver toxicity observed during clinical trials, expressed as a percentage. [column '% BIOL' in source]; details: human
# 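For Hepatotoxicity (association with vascular disease) in this document: count of indexed literature references reporting vascular liver injury in humans, e.g. peliosis hepatitis, hepatic veno-occlusive disease or Budd-Chiari syndrome.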
# 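For Hepatotoxicity (benign tumour) in this document: value is a count of indexed literature references citing a benign tumour confirmed by histopathology.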
# 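For Hepatotoxicity (choleostasis) in this document: human cholestatic liver injury, shown by histopathology or by peak ALT or AST elevation over alkaline phosphatase ratio below 2, value counts indexed literature reports.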
# 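For Hepatotoxicity (chronic liver disease) in this document: chronic liver injury confirmed by histopathology or persistently raised serum aminotransferase activity beyond 6 months, value given as the count of indexed literature references.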
# 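For Hepatotoxicity (cirrhosis) in this document: value is a count of indexed literature references reporting cirrhosis confirmed by histopathology.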
# 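For Hepatotoxicity (cytolytic) in this document: human cytolytic liver injury, shown by histopathology or by a ratio above 5 of peak ALT or AST elevation to alkaline phosphatase elevation, value counts indexed references.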
# 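For Hepatotoxicity (granulomatous hepatitis) in this document: value is a count of indexed literature references reporting granulomatous liver disease confirmed by histopathology.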
# 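For Hepatotoxicity (malignant tumour) in this document: malignant tumour confirmed by histopathology, value gives the count of indexed literature references reporting it.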
# 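For Hepatotoxicity (severe hepatitis) in this document: human clinical data: severe hepatitis, meaning potentially life-threatening liver failure or clinically observed cases, the value counts how many indexed literature references report it.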
# 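For Hepatotoxicity (steatosis) in this document: steatosis confirmed by histopathology, value is the count of indexed references.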
Compound,Hepatotoxicity (severe hepatitis) [1],Hepatotoxicity (cirrhosis) [2],Hepatotoxicity (association with vascular disease) [3],Hepatotoxicity (steatosis) [4],Hepatotoxicity (acute) [5],Hepatotoxicity (malignant tumour) [6],Hepatotoxicity (cytolytic) [7],Hepatotoxicity (time to onset) [8],Hepatotoxicity (chronic liver disease) [9],Hepatotoxicity (benign tumour) [10],Hepatotoxicity (successful reintroduction) [11],Hepatotoxicity (acute) [12],Hepatotoxicity (granulomatous hepatitis) [13],Hepatotoxicity (choleostasis) [14],Hepatotoxicity (moderate) [15],Hepatotoxicity (moderate) [16]
C/C=C(/CC)C(=O)NC(N)=O,0,0,0,0,1,0,0,3 weeks,0,0,yes,0%,0,0,0,0%
N[C@@H](Cc1ccc(N(CCCl)CCCl)cc1)C(=O)O,0,0,2,0,2,0,0,6 days - 7 weeks,0,0,yes,0%,0,1,1,8%
NS(=O)(=O)c1cc2c(cc1Cl)NCNS2(=O)=O [HYDROCHLOROTHIAZIDE],1,0,0,0,4,0,3,17 days - 14 months,0,0,yes,0%,0,1,2,2.4%
CCc1oc2ccccc2c1C(=O)c1cc(Br)c(O)c(Br)c1 [BENZBROMARONE],4,0,0,0,5,0,5,1.5 months - 5 months,0,0,yes,0%,0,0,1,0%
